The values below are quoted from earlier work in patent publication US20170002355A1, “cGAP-PNA MULTIVALENT PEPTIDE NUCLEIC ACID LIGAND DISPLAY” (THE USA, AS REPRESENTED BY THE SECRETARY, DEPART- MENT OF …, priority 2014, published 2017).

In one data set the target is T1, hA3AR (Homo sapiens, UniProt P0DMS8).
T1 construct: expressed in transfected cells
T1 sequence (P0DMS8 1-318): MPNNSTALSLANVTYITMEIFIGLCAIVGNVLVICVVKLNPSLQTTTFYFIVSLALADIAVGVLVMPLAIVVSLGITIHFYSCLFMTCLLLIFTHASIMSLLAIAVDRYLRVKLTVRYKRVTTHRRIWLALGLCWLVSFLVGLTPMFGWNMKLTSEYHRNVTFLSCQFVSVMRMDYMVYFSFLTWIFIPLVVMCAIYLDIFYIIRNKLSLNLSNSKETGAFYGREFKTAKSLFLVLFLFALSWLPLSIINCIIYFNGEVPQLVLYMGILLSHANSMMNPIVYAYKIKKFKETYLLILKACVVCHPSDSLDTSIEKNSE
The conditions noted are these: published literature values of XAC (Kecskes et al. 2011).

A further data set addresses T2, hA1AR (Homo sapiens, UniProt P30542).
T2 construct: expressed in transfected cells
T2 sequence (P30542 1-326): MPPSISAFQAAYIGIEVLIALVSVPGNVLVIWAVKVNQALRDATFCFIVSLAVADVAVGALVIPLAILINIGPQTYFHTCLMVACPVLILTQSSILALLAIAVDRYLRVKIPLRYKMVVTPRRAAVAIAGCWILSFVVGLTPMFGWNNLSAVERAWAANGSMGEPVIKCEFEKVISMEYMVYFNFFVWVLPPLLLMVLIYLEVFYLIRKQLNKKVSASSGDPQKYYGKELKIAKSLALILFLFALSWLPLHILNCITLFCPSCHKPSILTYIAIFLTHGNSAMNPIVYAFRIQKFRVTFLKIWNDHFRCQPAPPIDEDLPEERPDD
The settings on record: published literature values of XAC (Kecskes et al. 2011).

On to `CCCn1c(=O)c2[nH]c(-c3ccc(OCC(=O)NCCN)cc3)nc2n(CCC)c1=O` [XAC, N-(2-aminoethyl)-2-[4-(2,3,6,7-tetrahydro-2,6-dioxo-1,3-dipropyl-1H-purin-8-yl)phenoxy]-acetamide], for which the “A3:A2A selectivity, literature” value at hA3AR was 2.4. In addition, the “A1:A2A selectivity, literature” value on hA1AR was 1.4.
